Experimental findings from patent US20210260070A1, “LYSIN CF-301 RESENSITIZES METHICILLIN-RESISTANT STAPHYLOCOCCUS AUREUA (MRSA) TO PENICILLIN DERIVATIVES AND FIRST GENERATION CEPHALOSPORINS” (priority 2018, published 2021) are described below.

Values after ≈ are worked out from the molar mass of the structure shown.

What all share (format): cell-based, Staphylococcus aureus
Assay [1] relates to nine different MRSA strains. The assay can be described thus: Broth microdilution checkerboard assays, summary over the panel. The following applies: each of the nine MRSA strains; breakpoint MIC ≤2 sensitive. The text has this:
In some embodiments, the present lysin polypeptides reduce the minimum inhibitory concentration (MIC) of an antibiotic. Any known method to assess MIC may be used. In some embodiments, a checkerboard assay is used to determine the effect of a lysin on antibiotic concentration. The checkerboard assay is based on a modification of the CLSI method for MIC determination by broth microdilution (See Clinical and Laboratory Standards Institute (CLSI), CLSI. 2015. Methods for Dilution Antimicrobial Susceptibility Tests for Bacteria That Grow Aerobically; Approved Standard-10th Edition. Clinical and Laboratory Standards Institute, Wayne, Pa., which is herein incorporated by reference in its entirety and Ceri et al. 1999. J. Clin. Microbiol. 37: 1771-1776, which is also herein incorporated by reference in its entirety).
Checkerboards are constructed by first preparing columns of e.g., a 96-well polypropylene microtiter plate, wherein each well has the same amount of antibiotic diluted 2-fold along the horizontal axis. […] The lysin and antibiotic dilutions are then combined, so that each column has a constant amount of antibiotic and doubling dilutions of lysin, while each row has a constant amount of lysin and doubling dilutions of antibiotic. Each well thus has a unique combination of lysin and antibiotic. Bacteria are added to the drug combinations at a given concentration. […] Summation fractional inhibitory concentrations (ΣFICs) are calculated for each drug and the minimum ΣFIC value (ΣFICmin) is used to determine the effect of the lysin/antibiotic combination.
A step-wise approach was used to evaluate PlySs2 as a resensitizing agent. First, broth microdilution checkerboard assays were used to determine fractional inhibitory concentration index (FICI) values for combinations of PlySs2 with three β-lactam antibiotics [oxacillin (OXA), nafcillin (NAF), and cefazoline (CFZ)] against nine different MRSA strains. […] Representative single agent MICs are also shown, determined for each agent alone (initial) and in combinations (final). […]

In a further assay the test system is MRSA strain MW2. The assay is described as follows: 21-day in vitro serial passage resistance assay. The text has this:
Serial passage resistance studies were undertaken to assess the ability of PlySs2 lysin to suppress the emergence of antibiotic resistance when used in combination with oxacillin used to treat S. aureus infections. Methods used to perform serial passage experiments are described in Palmer et al., Genetic basis for daptomycin resistance in enterococci, ANTIMICROBIAL AGENTS AND CHEMOTHERAPY (2011); 55:3345-56 and Berti et al., Altering the Proclivity towards Daptomycin Resistance in Methicillin-Resistant Staphylococcus aureus Using Combinations with Other Antibiotics, ANTIMICROBIAL AGENTS AND CHEMOTHERAPY (2012); 56:5046-53, respectively.
21-day in vitro serial passage resistance assays were performed to determine the impact of PlySs2 (alone) on oxacillin and PlySs2 MIC values and the potential for a “seesaw” effect similar to that previously shown, whereby exposures to daptomycin or vancomycin were accompanied by increased susceptibility (and the potential for resensitization) to β-lactam antibiotics [Renzoni et al., Molecular Bases Determining Daptomycin Resistance-Mediated Resensitizatoin to β-Lactams (Seesaw Effect) in Methicillin-Resistant Staphylococcus aureus, ANTIMICROBIAL AGENTS AND CHEMOTHERAPY (2017) 61(1):e01634-16 and Werth et al., Evaluation of Ceftaroline Activity against Heteroresistant Vancomycin-Intermediate Staphylococcus aureus and Vancomycin-Intermediate Methicillin-Resistant S. aureus Strains in an In Vitro Pharmacokinetic/Pharmacodynamic Model: Exploring the ‘Seesaw Effect’, ANTIMICROBIAL AGENTS AND CHEMOTHERAPY (2013); 57(6):2664-68].
MRSA strain MW2 was serially passaged in triplicate on a daily basis for 21 days using both a 1.1-fold and 2-fold PlySs2 dilution series. As shown in FIGS. 1-3, only modest 2-fold shifts in PlySs2 MIC values were observed. […] This seesaw effect, i.e., a decrease in MRSA's susceptibility to PlySs2 accompanied by a paradoxical increase in susceptibility to oxacillin, indicates PlySs2 lysin's ability to resensitize MRSA to oxacillin. Three MRSA MW2 strain isolates were taken just prior (days 16, 11, and 8 for FIGS. 1-3, respectively) and just after (days 17, 12, and 9 for FIGS. 1-3, respectively) the observed MIC shift for whole genome sequencing.

A further assay has as its system S. aureus strain MW2. The assay can be described thus: MIC of parental strain. Here is the method:
An ex vivo analysis was performed on tissue samples recovered after PlySs2 treatment in a standard rabbit model of MRSA infective endocarditis (IE), as disclosed in Xiong et al., Comparative efficacy of telavancin and daptomycin in experimental endocarditis due to multi-clonotype MRSA strains, J. ANTIMIC. CHEMO. (2016); 71(1):2890-94. The standard rabbit IE model was used to confirm the impact of PlySs2 treatment on oxacillin MICs. Four days after treatment with a single-dose of PlySs2 (0.18 mg/kg to 1.4 mg/kg) in the IE model, isolates were recovered from valvular vegetations and plated on TSAB (non-selective condition, Tables 3 and 4) and TSAB supplemented with PlySs2 over a range of concentrations (selective conditions, Tables 5 and 6). MIC values of the MRSA isolates were determined for both PlySs2 and oxacillin. Tables 3 and 4 below show the MICs calculated for PlySs2 and oxacillin, respectively, for valvular vegetations subject to the non-selective conditions.

The test system of assay [2] is MRSA MW2 mutant and control isolates from valvular vegetations. The assay is described as follows: MICs of mutant and control isolates from the rabbit IE study. From the text:
The PlySs2 and oxacillin MICs of each mutant and control strain are shown below in Tables 7 and 8, wherein + indicates the presence of the mutation and—indicates an absence of the mutation.

Take `Cc1onc(-c2ccccc2)c1C(=O)N[C@@H]1C(=O)N2[C@@H]1SC(C)(C)[C@@H]2C(=O)O` [OXA, oxacillin]: in assay [1], the “MIC in synergistic combination with PlySs2 relative to breakpoint” value is recorded as “below breakpoint values”. For the same molecule, the “OXA MIC after shift” value in the assay with MRSA strain MW2 (MW2, serial passage in PlySs2, after the shift) is 16 µg/mL. Also, in the assay on MRSA strain MW2 (MW2, serial passage in PlySs2, before the shift), the “OXA MIC before shift” value stood at 64 µg/mL. Further, the “OXA MIC fold change” value in the assay with MRSA strain MW2 (MW2 after PlySs2 exposure in serial passage) is 0.25 fold. Besides, the minimal inhibitory concentration (MIC) (commonly the lowest concentration that inhibits growth of the organism) in the assay with S. aureus strain MW2 (Staphylococcus aureus, MW2) came out at 32 µg/mL; in assay [2] (Staphylococcus aureus, Control #1 isolate) it was 64 µg/mL (≈ 159 µM); in assay [2] (Staphylococcus aureus, Control #2 isolate) it was 32 µg/mL (≈ 79.7 µM); in assay [2] (Staphylococcus aureus, Control #3 isolate), 64 µg/mL (≈ 159 µM); in assay [2] (Staphylococcus aureus, Mutant #1 (hlgCB near, mprF L291I, rlmH K159R, ΔSCCmec)), 1 µg/mL (≈ 2.49 µM); in assay [2] (Staphylococcus aureus, Mutant #2 (hlgCB near, graR I158S, rlmH K159R, ΔSCCmec)), 1 µg/mL (≈ 2.49 µM). Also, the “Decrease in oxacillin MIC” value in assay [2] (two mutants from the valvular vegetations) is 32 fold.

B1: PlySs2: bacteriophage lysin derived from Streptococcus suis, amino acid sequence SEQ ID NO: 1 (245 residues) (protein, listed as Streptococcus suis)
chain: MTTVNEALNNVRAQVGSGVSVGNGECYALASWYERMISPDATVGLGAGVGWVSGAIGDTISAKNIGSSYNWQANGWTVSTSGPFKAGQIVTLGATPGNPYGHVVIVEAVDGDRLTILEQNYGGKRYPVRNYYSAASYRQQVVHYITPPGTVAQSAPNLAGSRSYRETGTMTVTVDALNVRRAPNTSGEIVAVYKRGESFDYDTVIIDVNGYVWVSYIGGSGKRNYVATGATKDGKRFGNAWGTFK
As for B1, the “Shift in PlySs2 MIC values” with MRSA strain MW2 (MW2 passaged daily for 21 days in 1.1-fold and 2-fold PlySs2 dilution series, triplicate) amounted to 2 fold. The “MIC of S. aureus strain MW2” value in the assay on S. aureus strain MW2 came to 1 µg/mL. In addition, the MIC result is reported as “(1 μg/mL)/” in assay [2] (Control #1 isolate); “(2 μg/mL)/” in assay [2] (Control #2 isolate); “(2 μg/mL)” in assay [2] (Control #3 isolate); “(2 μg/mL)” in assay [2] (Mutant #1 (hlgCB near, mprF L291I, rlmH K159R, ΔSCCmec)); “(1 μg/mL)” in assay [2] (Mutant #2 (hlgCB near, graR I158S, rlmH K159R, ΔSCCmec)).
